Data taken from patent US20220265817A1, “THERAPEUTIC COMPOSITIONS AND METHODS FOR TREATING HEPATITIS B” (priority 2017, published 2022).

System: HBV rcDNA in HepDE19 cells
Assay: HepDE19 cell culture system, rcDNA quantitation using bDNA assay, MacSynergy II
Format: cell-based, human hepatoma cell line
Settings: for AVERAGE % INHIBITION: COMPOUND 3 0.000 μM
Procedure: In vitro combination studies were conducted using the method of Prichard and Shipman (Prichard M N, and Shipman C Jr., Antiviral Research, 1990, 14 (4-5), 181-205; and Prichard M N, et. al., MacSynergy II). HepDE19 cell culture system is a HepG2 (human hepatocarcinoma) derived cell line that supports HBV DNA replication and cccDNA formation in a tetracycline (Tet)-regulated manner and produces HBV rcDNA and a detectable reporter molecule dependent on the production and maintenance of cccDNA (Guo et al 2007. J. Virol 81:12472-12484). HepDE19 (50,000 cells/well) were plated in 96 well collagen-coated tissue-culture treated microtiter plates in DMEM/F12 medium supplemented with 10% fetal bovine serum, 1% penicillin-streptomycin and 1 μg/ml tetracycline and incubated in a humidified incubator at 37° C. and 5% CO2 overnight. Next day, the cells were switched to fresh medium without tetracycline and incubated for 4 hrs at 37° C. and 5% CO2. […] The two inhibitors were tested both singly as well as in combinations in a checkerboard fashion such that each concentration of inhibitor A was combined with each concentration of inhibitor B to determine their combination effects on inhibition of rcDNA production. Following a 7 day-incubation of cells with compound combinations, the level of rcDNA present in the inhibitor-treated wells was measured using a Quantigene 2.0 bDNA assay kit (Affymetrix, Santa Clara, Calif.) with HBV specific custom probe set and manufacturers instructions. […] The RLU data from the single compound treated cells were analyzed using XL-Fit module in Microsoft Excel to determine EC50 values using a 4-parameter curve fitting algorithm. Concurrently, the effect of compounds on cell viability was assessed using replicate plates, plated at a density of 5,000 cells/well and incubated for 4 days, to determine the ATP content as a measure of cell viability using the cell-titer glo reagent (CTG; Promega Corporation, Madison, Wis.) as per manufacturer's instructions.
In vitro combination studies were conducted using the method of Prichard and Shipman (Prichard M N, Shipman C, Jr., Antiviral Res, 14, 181-205 (1990)). The HepDE19 cell line was developed as described in Guo et al. (Guo et al., J Virol, 81, 12472-12484 (2007)). It is a human hepatoma cell line stably transfected with the HBV genome, and which can express HBV pregenomic RNA and support HBV rcDNA (relaxed circular DNA) synthesis in a tetracycline-regulated manner. HepDE19 cells were plated in 96 well tissue-culture treated microtiter plates in DMEM/F12 medium supplemented with 10% fetal bovine serum+1% penicillin-streptomycin without tetracycline and incubated in a humidified incubator at 37° C. and 5% CO2 overnight. […] The two inhibitors were tested both singly as well as in combinations in a checkerboard fashion such that each concentration of inhibitor A was combined with each concentration of inhibitor B to determine their combination effects on inhibition of rcDNA production. Following a 48 hour-incubation, the level of rcDNA present in the inhibitor-treated wells was measured using a bDNA assay (Affymetrix) with HBV specific custom probe set and manufacturers instructions. […] Concurrently, the effect of inhibitor combinations on cell viability was assessed using replicate plates that were used to determine the ATP content as a measure of cell viability using the Cell-TiterGlo reagent (Promega) as per manufacturer's instructions.
In vitro combination studies were conducted using the method of Prichard and Shipman (1990) (Prichard M N, Shipman C, Jr. 1990. A three-dimensional model to analyze drug-drug interactions. Antiviral Res 14:181-205 AND Prichard M N. 1992. MacSynergy II, University of Michigan).

For `CCOC(=O)C1=C(CN2CCOCC2)NC(c2nccs2)=NC1c1ccc(F)cc1Br` (stereo not shown) [GLS4], which “AVERAGE % INHIBITION” value (GLS-4 0.008 μM) is on record?
The value was −1.17%.

And the “AVERAGE % INHIBITION” value (GLS-4 0.016 μM)?
The value was −5.82%.

And the “AVERAGE % INHIBITION” value (GLS-4 0.031 μM)?
The value was 7.03%.

And the “AVERAGE % INHIBITION” value (GLS-4 0.063 μM)?
The value was 38.95%.

What about the “AVERAGE % INHIBITION” value (GLS-4 0.125 μM) of the same molecule?
Its value is 77.82%.

What about the “AVERAGE % INHIBITION” value (GLS-4 0.250 μM) of the same molecule?
Its value is 94.65%.

And the “AVERAGE % INHIBITION” value (GLS-4 0.500 μM)?
Its value is 97.48%.

And the “AVERAGE % INHIBITION” value (GLS-4 1.000 μM)?
Its value is 98.51%.

And the “AVERAGE % INHIBITION” value (GLS-4 2.000 μM)?
The value was 98.22%.

And the EC50 (rcDNA, bDNA assay, DE19 cells, read-out: Inhibitor B EC50)?
The EC50 was 77 nM.
